Measurements as given in ChEMBL document CHEMBL4118122, “Identification and biological evaluation of thiazole-based inverse agonists of RORγt” (Bioorg Med Chem Lett, 2018).

Experiments:
[1] = molecular target: T1, Nuclear receptor ROR-beta (Homo sapiens, UniProt Q92753); assay: Inverse agonist activity at human GAL4 DBD-fused RORbeta LBD (201 to 452 residues) expressed in HEK293T cells assessed as reduction in ROR mediated transcriptional activity after 24 hrs by dual glo luciferase reporter gene assay; type: cell-based
T1 sequence (Q92753 whole entry): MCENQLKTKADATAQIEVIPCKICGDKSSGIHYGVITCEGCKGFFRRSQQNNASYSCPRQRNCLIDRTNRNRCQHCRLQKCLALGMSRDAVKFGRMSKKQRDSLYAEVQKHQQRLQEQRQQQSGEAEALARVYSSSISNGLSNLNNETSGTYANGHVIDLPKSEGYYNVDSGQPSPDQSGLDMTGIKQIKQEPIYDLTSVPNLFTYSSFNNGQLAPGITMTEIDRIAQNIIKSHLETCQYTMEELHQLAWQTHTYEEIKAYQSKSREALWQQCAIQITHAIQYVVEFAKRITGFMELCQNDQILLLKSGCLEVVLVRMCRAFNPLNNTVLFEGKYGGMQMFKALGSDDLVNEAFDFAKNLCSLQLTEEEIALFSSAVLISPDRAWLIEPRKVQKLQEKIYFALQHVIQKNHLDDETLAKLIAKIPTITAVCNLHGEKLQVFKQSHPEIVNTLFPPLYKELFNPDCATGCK

[2] = molecular target: Adenosine receptor A1 (Homo sapiens) (UniProt P30542); assay: Displacement of [3H]-DPCPX from human recombinant adenosine A1 receptor at 10 uM after 60 mins by scintillation counting analysis relative to control
[3] = molecular target: Galanin receptor type 2 (Homo sapiens) (UniProt O43603); assay: Displacement of [125I]-endothelin-1 from human recombinant GAL2 receptor at 10 uM after 120 mins by scintillation counting analysis relative to control
[4] = molecular target: C-C chemokine receptor type 1 (Homo sapiens) (UniProt P32246); assay: Displacement of [125I]MIP-1alpha from human recombinant CCR1 receptor at 10 uM after 120 mins by scintillation counting analysis relative to control
[5] = molecular target: Muscarinic acetylcholine receptor M1 (Homo sapiens) (UniProt P11229); assay: Displacement of […] from human recombinant M1 receptor at 10 uM after 60 mins by scintillation counting analysis relative to control
[6] = molecular target: 5-hydroxytryptamine receptor 6 (Homo sapiens, UniProt P50406); assay: Displacement of [3H]LSD from human recombinant 5-HT6 receptor at 10 uM after 120 mins by scintillation counting analysis relative to control
[7] = molecular target: Adenosine receptor A1 (Homo sapiens) (UniProt P30542); assay: Displacement of [3H]-DPCPX from human recombinant adenosine A1 receptor at 1 uM after 60 mins by scintillation counting analysis relative to control
D(1A) dopamine receptor = D(1A) dopamine receptor (Homo sapiens, UniProt P21728); assay: Displacement of [3H]-SCH 23390 from human recombinant dopamine D1 receptor at 1 uM after 60 mins by scintillation counting analysis relative to control
[8] = molecular target: C-C chemokine receptor type 1 (Homo sapiens) (UniProt P32246); assay: Displacement of [125I]MIP-1alpha from human recombinant CCR1 receptor at 1 uM after 120 mins by scintillation counting analysis relative to control
[9] = molecular target: Neuropeptide Y receptor type 2 (Homo sapiens) (UniProt P49146); assay: Displacement of [125I]peptide YY from human Y2 receptor at 1 uM after 120 mins by scintillation counting analysis relative to control
Rattus norvegicus = species on record: Rattus norvegicus; assay: Displacement of [3H]D 888 from rat brain L-type calcium channel verapamil binding site at 1 uM after 120 mins by scintillation counting analysis relative to control
[10] = molecular target: Adrenergic receptor alpha-2 (Rattus norvegicus, UniProt P22086+P19328+P22909); assay: Displacement of [3H]-RX 821002 from rat alpha2 adrenoceptor after 60 mins by scintillation counting analysis; type: protein assay
B2 bradykinin receptor = B2 bradykinin receptor (Homo sapiens, UniProt P30411); assay: Displacement of [3H]bradykinin from human recombinant B2 receptor after 60 mins by scintillation counting analysis
[11] = molecular target: C-X-C chemokine receptor type 2 (Homo sapiens, UniProt P25025); assay: Displacement of [125I]IL-8 from human recombinant CXCR2 receptor after 60 mins by scintillation counting analysis
Melanocortin receptor 4 = Melanocortin receptor 4 (Homo sapiens, UniProt P32245); assay: Displacement of [125I]NDP-alpha -MSH from human recombinant MC4 receptor after 120 mins by scintillation counting analysis
[12] = molecular target: Neuropeptide Y receptor type 1 (Homo sapiens, UniProt P25929); assay: Displacement of [125I]peptide YY from human Y1 receptor after 120 mins by scintillation counting analysis
[13] = molecular target: 5-hydroxytryptamine receptor 1B (Rattus norvegicus, UniProt P28564); assay: Displacement of [125I]-CYP from rat brain 5-HT1B receptor after 120 mins by scintillation counting analysis
[14] = molecular target: 5-hydroxytryptamine receptor 2B (Homo sapiens, UniProt P41595); assay: Displacement of [125I]+/-DOI from human recombinant 5-HT2B receptor after 60 mins by scintillation counting analysis
[15] = molecular target: Sodium-dependent serotonin transporter (Homo sapiens, UniProt P31645); assay: Displacement of [3H]-imipramine from recombinant human 5-HT transporter after 60 mins by scintillation counting relative to control
[16] = molecular target: Aurora kinase A (Homo sapiens) (UniProt O14965); assay: Inhibition of recombinant full length His-tagged human Aurora A expressed in baculovirus expression system at 10 uM in presence of ATP relative to control
[17] = molecular target: Cyclin-dependent kinase 1/cyclin B1 (Homo sapiens) (UniProt P06493+P14635); assay: Inhibition of recombinant full length His-tagged human CDK1/Cyclin B expressed in baculovirus expression system at 10 uM in presence of ATP relative to control
[18] = molecular target: Serine/threonine-protein kinase Chk1 (Homo sapiens) (UniProt O14757); assay: Inhibition of recombinant full length His-tagged human CHK1 expressed in baculovirus expression system at 10 uM in presence of ATP relative to control
[19] = molecular target: Ephrin type-A receptor 2 (Homo sapiens) (UniProt P29317); assay: Inhibition of recombinant GST-tagged human EPHA2 (560 to 976 residues) cytoplasmic domain expressed in baculovirus expression system at 10 uM in presence of ATP relative to control
[20] = molecular target: Tyrosine-protein kinase JAK2 (Homo sapiens) (UniProt O60674); assay: Inhibition of recombinant GST-tagged human JAK2 catalytic domain (809 to 1153 residues) expressed in baculovirus expression system at 10 uM in presence of ATP relative to control
[21] = molecular target: Serine/threonine-protein kinase PAK 4 (Homo sapiens) (UniProt O96013); assay: Inhibition of recombinant GST-tagged human PAK4 catalytic domain expressed in baculovirus expression system at 10 uM in presence of ATP relative to control
[22] = Thermodynamic solubility of the compound in 30 mM phosphate buffer at 10 mM at pH 7 after 2 to 5 days by UV-HPLC analysis; type: physicochemical; conditions: read-out: Therm_solubility
[23] = Thermodynamic solubility of the compound in 30 mM phosphate buffer at 10 mM at pH 2 after 2 to 5 days by UV-HPLC analysis; type: physicochemical; conditions: read-out: Therm_solubility
[24] = Terminal half life in Sprague-Dawley rat at 5 mg/kg, po; type: ADME, organism-based; conditions: in vivo, read-out: beta t1/2 (converted)

Chain of Adenosine receptor A1 (Homo sapiens) (P30542 whole entry): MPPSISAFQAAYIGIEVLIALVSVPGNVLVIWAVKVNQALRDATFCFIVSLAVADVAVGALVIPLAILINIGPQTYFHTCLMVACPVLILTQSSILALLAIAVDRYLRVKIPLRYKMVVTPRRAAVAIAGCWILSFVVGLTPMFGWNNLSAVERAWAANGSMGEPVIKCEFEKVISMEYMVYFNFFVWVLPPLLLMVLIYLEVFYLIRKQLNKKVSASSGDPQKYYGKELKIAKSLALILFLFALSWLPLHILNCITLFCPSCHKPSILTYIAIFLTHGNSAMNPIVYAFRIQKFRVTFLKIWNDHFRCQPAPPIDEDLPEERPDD
Chain of C-C chemokine receptor type 1 (Homo sapiens) (P32246 whole entry): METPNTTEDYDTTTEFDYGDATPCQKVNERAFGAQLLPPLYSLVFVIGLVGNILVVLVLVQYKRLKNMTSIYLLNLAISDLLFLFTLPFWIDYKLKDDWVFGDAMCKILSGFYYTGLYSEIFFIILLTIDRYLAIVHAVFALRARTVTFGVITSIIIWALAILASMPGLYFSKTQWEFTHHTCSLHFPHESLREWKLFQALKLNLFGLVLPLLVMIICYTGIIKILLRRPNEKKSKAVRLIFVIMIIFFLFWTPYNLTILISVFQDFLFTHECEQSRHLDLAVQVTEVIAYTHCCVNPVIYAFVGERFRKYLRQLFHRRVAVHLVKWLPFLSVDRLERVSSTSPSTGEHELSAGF
Chain of Neuropeptide Y receptor type 2 (Homo sapiens) (P49146 whole entry): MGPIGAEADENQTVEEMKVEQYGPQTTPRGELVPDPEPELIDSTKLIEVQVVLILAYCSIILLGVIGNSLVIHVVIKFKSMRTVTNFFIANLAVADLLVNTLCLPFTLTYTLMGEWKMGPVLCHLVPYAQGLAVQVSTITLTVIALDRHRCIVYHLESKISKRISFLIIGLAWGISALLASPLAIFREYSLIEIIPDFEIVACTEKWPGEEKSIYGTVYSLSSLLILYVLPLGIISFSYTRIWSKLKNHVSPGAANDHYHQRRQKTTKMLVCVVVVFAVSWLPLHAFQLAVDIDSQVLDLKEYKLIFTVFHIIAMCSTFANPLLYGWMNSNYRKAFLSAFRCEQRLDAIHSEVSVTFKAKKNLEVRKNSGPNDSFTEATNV
Chain of 5-hydroxytryptamine receptor 2B (P41595 whole entry): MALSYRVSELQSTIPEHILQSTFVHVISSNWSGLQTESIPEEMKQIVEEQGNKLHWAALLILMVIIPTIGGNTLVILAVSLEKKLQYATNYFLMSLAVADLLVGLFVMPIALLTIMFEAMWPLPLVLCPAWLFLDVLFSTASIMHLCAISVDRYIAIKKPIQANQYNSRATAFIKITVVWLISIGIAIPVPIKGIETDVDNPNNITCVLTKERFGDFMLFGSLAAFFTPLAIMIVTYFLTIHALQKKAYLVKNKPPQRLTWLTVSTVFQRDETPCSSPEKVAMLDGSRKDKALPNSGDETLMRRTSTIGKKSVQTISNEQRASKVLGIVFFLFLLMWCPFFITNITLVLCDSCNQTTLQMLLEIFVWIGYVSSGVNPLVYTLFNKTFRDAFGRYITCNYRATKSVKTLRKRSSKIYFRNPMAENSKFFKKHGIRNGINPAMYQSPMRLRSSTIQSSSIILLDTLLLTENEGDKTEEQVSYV
Chain of Ephrin type-A receptor 2 (Homo sapiens) (P29317 whole entry, the tested form may be a part): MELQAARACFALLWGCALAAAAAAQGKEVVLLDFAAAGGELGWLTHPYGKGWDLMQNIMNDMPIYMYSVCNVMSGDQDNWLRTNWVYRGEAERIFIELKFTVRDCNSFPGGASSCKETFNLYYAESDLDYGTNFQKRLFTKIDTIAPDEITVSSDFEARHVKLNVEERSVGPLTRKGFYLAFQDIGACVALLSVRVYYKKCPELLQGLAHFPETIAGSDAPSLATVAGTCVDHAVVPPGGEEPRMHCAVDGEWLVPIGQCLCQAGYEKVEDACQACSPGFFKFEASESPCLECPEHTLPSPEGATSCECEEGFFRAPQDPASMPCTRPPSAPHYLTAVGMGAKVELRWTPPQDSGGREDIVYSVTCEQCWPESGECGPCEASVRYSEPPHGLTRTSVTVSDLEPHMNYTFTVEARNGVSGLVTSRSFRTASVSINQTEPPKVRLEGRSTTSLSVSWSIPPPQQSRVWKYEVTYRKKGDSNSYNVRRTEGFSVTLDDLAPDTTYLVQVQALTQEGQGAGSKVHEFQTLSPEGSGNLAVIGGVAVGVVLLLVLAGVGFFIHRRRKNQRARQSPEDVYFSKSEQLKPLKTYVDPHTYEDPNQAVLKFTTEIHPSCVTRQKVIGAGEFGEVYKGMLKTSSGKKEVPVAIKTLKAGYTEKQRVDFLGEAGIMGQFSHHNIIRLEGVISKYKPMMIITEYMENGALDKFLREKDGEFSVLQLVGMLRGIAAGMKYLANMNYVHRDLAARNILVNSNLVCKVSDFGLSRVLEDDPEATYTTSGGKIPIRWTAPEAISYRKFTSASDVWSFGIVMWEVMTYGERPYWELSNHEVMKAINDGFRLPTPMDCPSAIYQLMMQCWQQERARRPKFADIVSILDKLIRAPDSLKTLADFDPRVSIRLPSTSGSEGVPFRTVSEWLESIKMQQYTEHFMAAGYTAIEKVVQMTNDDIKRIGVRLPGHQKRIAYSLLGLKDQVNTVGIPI
Chain of Muscarinic acetylcholine receptor M1 (Homo sapiens) (P11229 whole entry): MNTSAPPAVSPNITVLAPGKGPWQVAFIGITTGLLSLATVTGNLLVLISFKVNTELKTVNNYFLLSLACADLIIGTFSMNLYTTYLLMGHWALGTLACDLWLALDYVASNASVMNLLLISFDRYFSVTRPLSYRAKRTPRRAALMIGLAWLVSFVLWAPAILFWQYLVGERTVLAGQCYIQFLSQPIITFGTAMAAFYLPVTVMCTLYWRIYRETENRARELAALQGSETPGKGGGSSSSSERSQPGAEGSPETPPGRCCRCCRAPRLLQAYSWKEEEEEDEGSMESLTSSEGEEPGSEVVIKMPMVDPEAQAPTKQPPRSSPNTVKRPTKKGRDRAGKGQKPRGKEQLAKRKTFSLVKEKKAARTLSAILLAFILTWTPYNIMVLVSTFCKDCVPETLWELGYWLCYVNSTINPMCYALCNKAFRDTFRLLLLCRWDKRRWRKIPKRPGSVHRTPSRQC
Chain of Aurora kinase A (Homo sapiens) (O14965 whole entry): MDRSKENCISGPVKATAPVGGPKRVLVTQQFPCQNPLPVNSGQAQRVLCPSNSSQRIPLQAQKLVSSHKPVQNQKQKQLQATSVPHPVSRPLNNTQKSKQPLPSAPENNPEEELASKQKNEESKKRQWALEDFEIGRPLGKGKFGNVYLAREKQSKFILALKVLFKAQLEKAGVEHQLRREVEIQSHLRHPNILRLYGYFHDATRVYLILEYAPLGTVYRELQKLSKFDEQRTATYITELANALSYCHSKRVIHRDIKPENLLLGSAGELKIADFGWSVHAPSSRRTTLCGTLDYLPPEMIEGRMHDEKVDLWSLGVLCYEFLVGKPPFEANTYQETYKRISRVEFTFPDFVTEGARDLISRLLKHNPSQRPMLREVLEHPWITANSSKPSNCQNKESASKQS
Chain of Serine/threonine-protein kinase Chk1 (Homo sapiens) (O14757 whole entry, the tested form may be a part): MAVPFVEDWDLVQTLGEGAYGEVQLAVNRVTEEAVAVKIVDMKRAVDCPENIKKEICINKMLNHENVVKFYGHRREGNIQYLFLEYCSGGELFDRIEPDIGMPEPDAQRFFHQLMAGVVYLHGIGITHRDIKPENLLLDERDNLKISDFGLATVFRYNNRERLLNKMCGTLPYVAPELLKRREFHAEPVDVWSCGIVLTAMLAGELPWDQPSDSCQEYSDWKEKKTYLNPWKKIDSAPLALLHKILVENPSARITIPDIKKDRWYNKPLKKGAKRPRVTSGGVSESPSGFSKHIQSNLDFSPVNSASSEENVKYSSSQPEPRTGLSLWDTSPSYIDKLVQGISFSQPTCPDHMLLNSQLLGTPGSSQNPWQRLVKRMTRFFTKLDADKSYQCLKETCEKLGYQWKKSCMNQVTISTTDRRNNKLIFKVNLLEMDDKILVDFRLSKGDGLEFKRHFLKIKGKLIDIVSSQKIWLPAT
Chain of 5-hydroxytryptamine receptor 6 (P50406 whole entry): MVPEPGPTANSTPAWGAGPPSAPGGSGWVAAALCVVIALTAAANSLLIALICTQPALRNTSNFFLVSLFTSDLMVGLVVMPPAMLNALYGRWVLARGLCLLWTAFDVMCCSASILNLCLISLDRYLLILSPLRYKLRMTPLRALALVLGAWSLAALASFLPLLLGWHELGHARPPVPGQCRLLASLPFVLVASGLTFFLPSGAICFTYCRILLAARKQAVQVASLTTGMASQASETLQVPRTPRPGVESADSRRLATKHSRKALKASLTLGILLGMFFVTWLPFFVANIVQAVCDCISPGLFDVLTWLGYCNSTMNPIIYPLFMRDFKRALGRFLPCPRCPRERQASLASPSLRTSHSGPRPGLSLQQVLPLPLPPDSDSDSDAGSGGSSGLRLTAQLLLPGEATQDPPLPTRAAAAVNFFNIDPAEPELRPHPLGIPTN
Chain of Galanin receptor type 2 (Homo sapiens) (O43603 whole entry): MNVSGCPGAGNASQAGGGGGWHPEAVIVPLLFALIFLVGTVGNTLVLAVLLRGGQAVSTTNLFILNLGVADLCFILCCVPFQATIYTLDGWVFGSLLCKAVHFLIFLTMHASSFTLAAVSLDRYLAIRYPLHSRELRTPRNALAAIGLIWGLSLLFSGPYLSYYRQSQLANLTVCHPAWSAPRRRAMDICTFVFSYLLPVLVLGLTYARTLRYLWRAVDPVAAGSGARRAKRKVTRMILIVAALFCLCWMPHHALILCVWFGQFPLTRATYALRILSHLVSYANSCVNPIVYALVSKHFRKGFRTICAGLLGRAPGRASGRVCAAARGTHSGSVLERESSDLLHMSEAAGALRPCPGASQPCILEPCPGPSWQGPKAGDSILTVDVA

CC(C)(C)NS(=O)(=O)c1ccc(-c2sc(C(=O)N[C@H]3C[C@H](C(=O)O)C3)nc2CC2CCCCC2)c2ccccc12
IC50 [1]: 164 nM
inhibition [2]: < 10%
inhibition [3]: < 10%
inhibition [4]: < 10%
inhibition [5]: < 10%
inhibition [6]: 33%
inhibition [7]: < 10%
inhibition (D(1A) dopamine receptor): < 10%
inhibition [8]: < 10%
inhibition [9]: < 10%
inhibition (Rattus norvegicus): < 10%
IC50 [10]: 43 nM
IC50 (B2 bradykinin receptor): 21 nM
IC50 [11]: 0.24 nM
IC50 (Melanocortin receptor 4): 0.21 nM
IC50 [12]: 0.13 nM
IC50 [13]: 14 nM
IC50 [14]: 3.2 nM
IC50 [15]: 1.7 nM
inhibition [16]: -5%
inhibition [17]: -3%
inhibition [18]: 1%
inhibition [19]: -7%
inhibition [20]: 2%
inhibition [21]: 7%
solubility thermodynamic at 10000 µM [22]: < 1 µM
solubility thermodynamic at 10000 µM [23]: < 1 µM
half-life [24]: 126 min
